Measurements from BindingDB's records for PubMed 29133594 (University of North Carolina at Chapel Hill).

Columns and labels:
Aurora kinase B = Aurora kinase B (Homo sapiens, UniProt Q96GD4); assay: Inhibition of AURKB (unknown origin)
[1] = molecular target: Mitogen-activated protein kinase 3 (Homo sapiens, UniProt P27361); assay: Inhibition of ERK1 (unknown origin)
Aurora kinase A = molecular target: T1, Aurora kinase A (Homo sapiens, UniProt O14965); assay: Inhibition of AURKA (unknown origin)
T1 sequence (O14965 whole entry): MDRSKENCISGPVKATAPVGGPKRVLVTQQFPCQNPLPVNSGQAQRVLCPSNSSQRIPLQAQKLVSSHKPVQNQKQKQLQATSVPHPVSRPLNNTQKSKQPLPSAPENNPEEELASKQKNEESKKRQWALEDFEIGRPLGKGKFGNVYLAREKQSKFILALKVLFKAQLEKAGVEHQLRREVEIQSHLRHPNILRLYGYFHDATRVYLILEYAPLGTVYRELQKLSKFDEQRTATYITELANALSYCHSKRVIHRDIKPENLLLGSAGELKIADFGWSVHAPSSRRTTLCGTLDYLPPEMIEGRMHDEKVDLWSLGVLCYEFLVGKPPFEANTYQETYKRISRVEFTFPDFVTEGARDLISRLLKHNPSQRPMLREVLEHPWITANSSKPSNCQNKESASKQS

[2] = molecular target: RAC-alpha serine/threonine-protein kinase (Homo sapiens, UniProt P31749); assay: Inhibition of AKT1 (unknown origin)
[3] = molecular target: Serine/threonine-protein kinase PLK1 (Homo sapiens, UniProt P53350); assay: Inhibition of PLK1 (unknown origin)
[4] = molecular target: Serine/threonine-protein kinase PLK3 (Homo sapiens, UniProt Q9H4B4); assay: Inhibition of PLK3 (unknown origin)
[5] = molecular target: RAF proto-oncogene serine/threonine-protein kinase (Homo sapiens, UniProt P04049); assay: Inhibition of CRAF (unknown origin)
RAF proto-oncogene serine/threonine-protein kinase, sequence (P04049 whole entry): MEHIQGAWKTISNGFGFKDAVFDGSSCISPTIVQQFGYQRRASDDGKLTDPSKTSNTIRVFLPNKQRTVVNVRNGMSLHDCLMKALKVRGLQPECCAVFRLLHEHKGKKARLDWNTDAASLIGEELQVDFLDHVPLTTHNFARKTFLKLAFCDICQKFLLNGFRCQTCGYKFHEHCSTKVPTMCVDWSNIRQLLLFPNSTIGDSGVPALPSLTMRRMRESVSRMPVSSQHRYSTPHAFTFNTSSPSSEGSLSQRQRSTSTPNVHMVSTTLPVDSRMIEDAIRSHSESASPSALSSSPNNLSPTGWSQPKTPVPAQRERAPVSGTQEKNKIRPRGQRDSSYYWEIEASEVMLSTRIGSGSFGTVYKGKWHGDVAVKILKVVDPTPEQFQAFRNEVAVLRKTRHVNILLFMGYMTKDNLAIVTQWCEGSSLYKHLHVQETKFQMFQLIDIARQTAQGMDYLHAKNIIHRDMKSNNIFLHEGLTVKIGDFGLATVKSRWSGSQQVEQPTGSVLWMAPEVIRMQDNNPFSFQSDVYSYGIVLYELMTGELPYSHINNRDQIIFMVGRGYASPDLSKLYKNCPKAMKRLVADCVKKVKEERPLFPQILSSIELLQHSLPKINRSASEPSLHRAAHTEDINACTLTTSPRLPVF

Serine/threonine-protein kinase PLK3, sequence (Q9H4B4 whole entry): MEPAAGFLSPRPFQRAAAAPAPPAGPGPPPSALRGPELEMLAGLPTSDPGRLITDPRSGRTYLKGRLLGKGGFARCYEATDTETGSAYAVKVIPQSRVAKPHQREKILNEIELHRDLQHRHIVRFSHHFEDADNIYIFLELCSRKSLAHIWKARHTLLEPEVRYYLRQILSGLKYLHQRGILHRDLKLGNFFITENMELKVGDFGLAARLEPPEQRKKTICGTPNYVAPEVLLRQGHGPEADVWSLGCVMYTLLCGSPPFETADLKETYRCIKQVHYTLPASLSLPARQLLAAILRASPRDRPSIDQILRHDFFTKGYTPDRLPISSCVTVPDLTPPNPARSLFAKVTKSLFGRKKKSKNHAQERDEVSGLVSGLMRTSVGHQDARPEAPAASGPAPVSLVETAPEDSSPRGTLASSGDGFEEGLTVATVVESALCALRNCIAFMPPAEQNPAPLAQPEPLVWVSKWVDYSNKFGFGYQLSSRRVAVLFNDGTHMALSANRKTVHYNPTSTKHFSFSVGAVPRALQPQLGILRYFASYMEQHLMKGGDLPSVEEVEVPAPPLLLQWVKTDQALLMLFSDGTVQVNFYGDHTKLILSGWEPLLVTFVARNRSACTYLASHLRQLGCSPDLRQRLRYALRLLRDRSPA
Mitogen-activated protein kinase 3, sequence (P27361 whole entry): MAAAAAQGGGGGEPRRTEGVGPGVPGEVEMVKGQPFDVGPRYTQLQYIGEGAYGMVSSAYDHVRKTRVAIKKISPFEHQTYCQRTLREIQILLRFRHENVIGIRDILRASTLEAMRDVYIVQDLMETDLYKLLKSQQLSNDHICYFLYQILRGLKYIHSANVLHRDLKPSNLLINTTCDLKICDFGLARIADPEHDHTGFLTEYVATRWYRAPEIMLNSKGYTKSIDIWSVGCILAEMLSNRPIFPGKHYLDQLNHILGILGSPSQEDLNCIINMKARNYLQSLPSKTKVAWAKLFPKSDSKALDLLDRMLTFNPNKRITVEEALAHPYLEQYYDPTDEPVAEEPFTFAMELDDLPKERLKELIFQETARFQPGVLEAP
Serine/threonine-protein kinase PLK1, sequence (P53350 whole entry): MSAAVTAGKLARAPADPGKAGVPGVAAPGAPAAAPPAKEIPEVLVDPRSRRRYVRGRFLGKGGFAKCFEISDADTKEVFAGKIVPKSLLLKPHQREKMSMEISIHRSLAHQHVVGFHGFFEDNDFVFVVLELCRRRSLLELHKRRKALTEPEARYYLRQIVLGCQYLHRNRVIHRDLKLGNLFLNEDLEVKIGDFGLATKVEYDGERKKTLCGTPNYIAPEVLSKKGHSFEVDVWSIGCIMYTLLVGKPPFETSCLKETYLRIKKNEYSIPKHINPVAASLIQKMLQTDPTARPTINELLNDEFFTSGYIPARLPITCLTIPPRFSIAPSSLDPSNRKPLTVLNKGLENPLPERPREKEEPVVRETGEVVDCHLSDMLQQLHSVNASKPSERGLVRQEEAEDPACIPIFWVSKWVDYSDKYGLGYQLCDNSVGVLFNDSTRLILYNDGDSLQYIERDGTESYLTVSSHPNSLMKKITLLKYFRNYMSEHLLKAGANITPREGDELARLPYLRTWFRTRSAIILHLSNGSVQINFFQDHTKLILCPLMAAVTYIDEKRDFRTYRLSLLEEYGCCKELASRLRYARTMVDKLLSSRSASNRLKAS
Aurora kinase B, sequence (Q96GD4 whole entry): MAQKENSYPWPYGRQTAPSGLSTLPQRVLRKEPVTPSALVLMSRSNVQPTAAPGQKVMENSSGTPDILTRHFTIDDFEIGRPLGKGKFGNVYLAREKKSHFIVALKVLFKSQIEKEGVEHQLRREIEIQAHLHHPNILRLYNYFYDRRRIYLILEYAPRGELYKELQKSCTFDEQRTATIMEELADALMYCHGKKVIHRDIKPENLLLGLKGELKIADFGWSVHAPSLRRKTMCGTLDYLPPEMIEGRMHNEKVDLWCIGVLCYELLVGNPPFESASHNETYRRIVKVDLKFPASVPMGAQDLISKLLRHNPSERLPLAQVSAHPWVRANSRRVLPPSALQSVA
RAC-alpha serine/threonine-protein kinase, sequence (P31749 whole entry): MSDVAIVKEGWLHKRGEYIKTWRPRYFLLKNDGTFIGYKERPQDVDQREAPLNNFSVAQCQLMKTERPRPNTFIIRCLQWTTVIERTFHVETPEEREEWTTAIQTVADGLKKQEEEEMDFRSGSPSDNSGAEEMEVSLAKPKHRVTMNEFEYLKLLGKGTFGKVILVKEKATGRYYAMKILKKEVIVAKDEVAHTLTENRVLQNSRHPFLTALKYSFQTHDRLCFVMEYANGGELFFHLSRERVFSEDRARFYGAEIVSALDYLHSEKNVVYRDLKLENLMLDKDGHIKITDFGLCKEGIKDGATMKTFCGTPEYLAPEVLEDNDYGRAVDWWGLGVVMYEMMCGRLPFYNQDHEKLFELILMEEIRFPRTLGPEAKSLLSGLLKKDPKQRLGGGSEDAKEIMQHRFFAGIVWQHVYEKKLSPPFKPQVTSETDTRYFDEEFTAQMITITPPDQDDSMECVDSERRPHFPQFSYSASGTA

IC50 (Aurora kinase B): > 20 µM
IC50 [1]: > 20 µM
IC50 (Aurora kinase A): > 20 µM
IC50 [2]: > 20 µM
IC50 [3]: > 20 µM
IC50 [4]: > 20 µM
IC50 [5]: > 20 µM
SMILES: CCN1CCN(Cc2ccc(Nc3ncc(F)c(-c4cc(F)c5nc(C)n(C(C)C)c5c4)n3)nc2)CC1 [Abemaciclib]
